Reference: patent US9034855B2, “Substituted phenylacetate and phenylpropane amides and use thereof” (Bayer Intellectual Property GmbH, priority 2010, dated 2015)
Values after ≈ are worked out from the molar mass of the structure shown.

Legend:
human V1a receptor = molecular target: T1, human V1a receptor (Homo sapiens, UniProt P37288); assay: Cellular in vitro assay for determining the vasopressin receptor activity (aequorin luminescence, recombinant CHO cells), human V1a; format: cell-based; conditions: CHO cells expressing aequorin, transfected with human V1a receptor; agonist [Arg8]-vasopressin; read-out: IC50 hV1a
T1 construct: expressed in transfected cells; host or cells: CHO K1 (ATCC), constitutively expressing modified aequorin
Source text: (§1) B-1. Cellular In Vitro Assay for Determining the Vasopressin Receptor Activity
(§2) The identification of agonists and antagonists of the V1a and V2 vasopressin receptors from humans and rats and also the quantification of the activity of the substances described here takes place using recombinant cell lines. These cells derive originally from a hamster's ovary epithelial cell (Chinese Hamster Ovary, CHO K1, ATCC: American Type Culture Collection, Manassas, Va. 20108, USA). The test cell lines constitutively express a modified form of the calcium-sensitive photoprotein aequorin, which, after reconstitution with the cofactor coelenterazine, emits light when there are increases in the free calcium concentration (Rizzuto R., Simpson A. W., Brini M., Pozzan T.; Nature 358 (1992) 325-327). In addition, the cells are stably transfected with the human or rat V1a or V2 receptors. In the case of the Gs-coupling V2 receptors, the cells are stably transfected with a further gene, which codes for the promiscuous Gα16 protein (Amatruda T. T., Steele D. A., Slepak V. Z., Simon M A., Proc. Na. Acad. Sci. USA 88 (1991), 5587-5591), either independently or as a fusion gene. The resulting vasopressin receptor test cells react to stimulation of the recombinantly expressed vasopressin receptors by intracellular release of calcium ions, which can be quantified by the resulting aequorin luminescence using a suitable luminometer (Milligan G., Marshall F., Rees S., Trends in Pharmaco. Sci. 17 (1996) 235-237).
(§3) On the day before the assay, the cells are plated out in culture medium (DMEM, 10% FCS, 2 mM glutamine, 10 mM HEPES) in 384-well microtiter plates and kept in a cell incubator (96% atmospheric humidity, 5% v/v carbon dioxide, 37° C.). On the day of the assay, the culture medium is replaced by a Tyrode solution (140 mM sodium chloride, 5 mM potassium chloride, 1 mM magnesium chloride, 2 mM calcium chloride, 20 mM glucose, 20 mM HEPES), which additionally contains the cofactor coelenterazine (50 μM), and the microtiter plate is then incubated for a further 3-4 hours. The test substances in various concentrations are placed for 10 to 20 minutes in the wells of the microtiter plate before the agonist [Arg8]-vasopressin is added, and the resulting light signal is measured immediately in the luminometer. The IC50 values are calculated using the GraphPad PRISM computer program (Version 3.02).
(§4) Table A below lists representative IC50 values for the compounds according to the invention transfected with the human V1a or V2 receptor: […]

[1] = Determination of the solubility; format: physicochemical; conditions: aqueous buffer, kinetic from dmso stock; PBS buffer pH 6.5, 20° C., 24 hours shaking, from DMSO solution
Experimental: B-6. Determination of the Solubility
Reagents Required: • PBS buffer pH 6.5: 90.00 g of NaCl p.a. (for example from Merck, Art. No. 1.06404.1000), 13.61 g of KH2PO4 p.a. (for example from Merck, Art. No. 1.04873.1000) and 83.35 g of 1N aqueous sodium hydroxide solution (for example from Bernd Kraft GmbH, Art. No. 01030.4000) are weighed into a 1 liter measuring flask, the flask is filled with distilled water to 1 liter and the mixture is stirred for 1 hour. Using 1N hydrochloric acid (for example from Merck, Art. No. 1.09057.1000) the pH is then adjusted to 6.5. • PEG/water solution (30:70 v/v): 30 ml of polyethylene glycol 400 (for example from Merck, Art. No. 8.17003.1000) and 70 ml of distilled water are homogenized in a 100 ml measuring flask. • PEG/PBS buffer pH 6.5 (80:20 v/v): 80 ml of polyethylene glycol 400 (for example from Merck, Art. No. 8.17003.1000) and 20 ml of PBS buffer pH 6.5 are homogenized in a 100 ml measuring flask. • Dimethyl sulphoxide (for example from Baker, Art. No. 7157.2500) • Distilled water.
Preparation of the Starting Solution (Original Solution):
At least 4 mg of the test substance are weighed accurately into a wide-necked 10 mm screw V vial (from Glastechnik Gräfenroda GmbH, Art. No. 8004-WM-H/V150 with fitting screw cap and septum, in a pipetting robot DMSO is added to a concentration of 50 mg/ml and the mixture is shaken for 10 minutes.
Preparation of the Calibration Solutions:
Preparation of the starting solution for calibration solutions (stock solution): With the aid of a pipetting robot, 10 μl of the original solution are transferred into a microtiter plate and made up with DMSO to a concentration of 600 μg/ml. The sample is shaken until everything has gone into solution.
Calibration solution 1 (20 μg/ml): 1000 μl of DMSO are added to 34.4 μl of the stock solution, and the mixture is homogenized.
Calibration solution 2 (2.5 μg/ml): 700 μl of DMSO are added to 100 μl of calibration solution 1, and the mixture is homogenized.
Preparation of the Sample Solutions:
Sample solution for solubilities of up to 5 g/liter in PBS buffer pH 6.5: 10 μl of the original solution are transferred into a microtiter plate, and 1000 μl of PBS buffer pH 6.5 are added.
The sample solutions prepared in this manner are shaken at 1400 rpm in a temperature-adjustable shaker (for example Eppendorf Thermomixer comfort Art. No. 5355 000.011 with interchangeable block Art. No. 5362.000.019) at 20° C. for 24 hours. In each case 180 μl are taken from these solutions and transferred into Beckman Polyallomer Centrifuge Tubes (Art. No. 343621). These solutions are centrifuged at about 223 000×g for one hour (for example Beckman Optima L-90K Ultracentrifuge with Type 42.2 Ti Rotor at 42 000 rpm). From each of the sample solutions, 100 μl of the supernatant are removed and diluted 1:5 and 1:100 with DMSO. From each dilution, a sample is transferred into a vessel suitable for HPLC analysis.
The samples are analysed by RP-HPLC. Quantification is carried out using a two-point calibration curve of the test compound in DMSO. The solubility is expressed in mg/liter. Analysis sequence: 1) calibration solution […]; 2) calibration solution 20 μg/ml; 3) sample solution 1:5; 4) sample solution 1:100.
Agilent 1100 with DAD (G1315A), quat. pump (G1311A), autosampler CTC HTS PAL, degasser (G1322A) and column thermostat (G1316A); column: Phenomenex Gemini C18, 50 mm×2 mm, 5μ; temperature: 40° C.; mobile phase A: water/phosphoric acid pH 2; mobile phase B: acetonitrile; flow rate: 0.7 ml/min; gradient: 0-0.5 min 85% A, 15% B; ramp: 0.5-3 min 10% A, 90% B; 3-3.5 min 10% A, 90% B; ramp: 3.5-4 min 85% A, 15% B; 4-5 min 85% A, 15% B. […]

human V2 receptor = molecular target: T2, human V2 receptor (Homo sapiens, UniProt P30518); assay: Cellular in vitro assay for determining the vasopressin receptor activity (aequorin luminescence, recombinant CHO cells), human V2; format: cell-based; conditions: CHO cells expressing aequorin and Gα16, transfected with human V2 receptor; agonist [Arg8]-vasopressin; read-out: IC50 hV2
T2 construct: expressed in transfected cells; host or cells: CHO K1 (ATCC), constitutively expressing modified aequorin, co-transfected with promiscuous G-alpha-16
Source text: as §1, §2, §3, §4

T1 sequence (P37288 whole entry): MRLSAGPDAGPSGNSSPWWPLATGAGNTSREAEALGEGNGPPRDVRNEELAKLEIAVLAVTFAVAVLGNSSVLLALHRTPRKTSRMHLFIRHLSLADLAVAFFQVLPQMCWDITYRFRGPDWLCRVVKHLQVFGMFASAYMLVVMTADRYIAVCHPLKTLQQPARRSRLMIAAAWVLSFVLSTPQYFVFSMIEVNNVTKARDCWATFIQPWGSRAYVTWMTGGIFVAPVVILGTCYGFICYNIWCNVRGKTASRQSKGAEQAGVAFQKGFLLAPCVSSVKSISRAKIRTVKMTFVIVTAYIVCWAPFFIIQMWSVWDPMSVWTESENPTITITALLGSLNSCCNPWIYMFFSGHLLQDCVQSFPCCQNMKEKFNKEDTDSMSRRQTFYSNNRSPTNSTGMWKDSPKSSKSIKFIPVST
T2 sequence (P30518 whole entry): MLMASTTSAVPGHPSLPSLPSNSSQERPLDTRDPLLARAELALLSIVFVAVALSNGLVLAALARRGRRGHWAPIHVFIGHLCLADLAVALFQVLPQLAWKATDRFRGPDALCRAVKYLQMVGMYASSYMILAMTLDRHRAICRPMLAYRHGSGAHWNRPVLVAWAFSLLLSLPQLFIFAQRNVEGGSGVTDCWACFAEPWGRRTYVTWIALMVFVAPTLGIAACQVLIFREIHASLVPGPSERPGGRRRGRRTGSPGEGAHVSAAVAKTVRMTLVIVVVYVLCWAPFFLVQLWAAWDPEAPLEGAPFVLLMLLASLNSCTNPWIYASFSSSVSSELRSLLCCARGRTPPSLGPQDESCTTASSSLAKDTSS

| IC50 (human V1a receptor) [µM] | solubility at 24 h [1] [µg/mL] | IC50 (human V2 receptor) [µM] | Structure (SMILES) |
| --- | --- | --- | --- |
| 0.15 | 360 (≈ 596 µM) | 0.96 | COCCn1c(-c2ccc(Cl)s2)nn(CC(=O)NC(C(=O)NC(C)(C)C(=O)O)c2cccc(C(F)(F)F)c2)c1=O (racemic) [Example 10, N-{({[3-(5-Chloro-2-thienyl)-4-(2-methoxyethyl)-5-oxo-4,5-dihydro-1H-1,2,4-triazol-1-yl]acetyl}-amino) [3-(trifluoromethyl)phenyl}acetyl]-2-methylalanine] |
| 0.001 | 360 (≈ 541 µM) | 0.0008 | CC(C)(NC(=O)[C@](C)(NC(=O)Cn1nc(-c2ccc(Cl)cc2)n(C[C@H](O)C(F)(F)F)c1=O)c1cccc(C(F)(F)F)c1)C(=O)O [Example 21, N-{(2R)-2-[({3-(4-Chlorophenyl)-5-oxo-4-[(2S)-3,3,3-trifluoro-2-hydroxypropyl]-4,5-dihydro-1H-1,2,4-triazol-1-yl}acetyl)amino]-2-[3-(trifluoromethyl)phenyl]propanoyl}-2-methylalanine] |
| 0.0078 | 110 (≈ 174 µM) | 1.18 | CC(C)(NC(=O)C(NC(=O)Cn1nc(-c2ccc(Cl)cc2)n(/C=C/C(F)(F)F)c1=O)c1ccccc1C(F)(F)F)C(N)=O (racemic) [Example 31, N^2-{[({3-(4-Chlorophenyl)-5-oxo-4-[(1E)-3,3,3-trifluoroprop-1-en-1-yl]-4,5-dihydro-1H-1,2,4-triazol-1-yl}acetyl)amino][2-(trifluoromethyl)phenyl]acetyl}-2-methylalaninamide] |
| 0.0038 | 400 (≈ 641 µM) | 0.0026 | O=C(C[C@H](NC(=O)Cn1nc(-c2ccc(Cl)cc2)n(C[C@H](O)C(F)(F)F)c1=O)c1cccc(C(F)(F)F)c1)NCCO [Example 54, (3S)-3-[({3-(4-Chlorophenyl)-5-oxo-4-[(2S)-3,3,3-trifluoro-2-hydroxypropyl]-4,5-dihydro-1H-1,2,4-triazol-1-yl}acetyl)amino]-N-(2-hydroxyethyl)-3-[3-(trifluoromethyl)phenyl]propanamide] |
| 0.0097 | 100 (≈ 160 µM) | 0.042 | O=C(Cn1nc(-c2ccc(Cl)cc2)n(C[C@H](O)C(F)(F)F)c1=O)NC(C(=O)NCCO)c1cccc(OC(F)(F)F)c1 (stereo partly drawn) [Example 52, 2-[({3-(4-Chlorophenyl)-5-oxo-4-[(2S)-3,3,3-trifluoro-2-hydroxypropyl]-4,5-dihydro-1H-1,2,4-triazol-1-yl}acetyl)amino]-N-(2-hydroxyethyl)-2-[3-(trifluoromethoxy)phenyl]acetamide] |
| 0.047 | 340 (≈ 588 µM) | 0.324 | O=C(Cn1nc(-c2ccc(Cl)cc2)n(C2CC2)c1=O)NC(C(=O)NC1(C(=O)O)CC1)c1cccc(C(F)(F)F)c1 (racemic) [Example 6, 1-({({[3-(4-Chlorophenyl)-4-cyclopropyl-5-oxo-4,5-dihydro-1H-1,2,4-triazol-1-yl]acetyl}-amino)[3-(trifluoromethyl)phenyl}acetyl]amino)cyclopropanecarboxylic acid] |
